Source: patent US7022520B2, “Cell culture media for mammalian cells” (University of Pittsburgh, priority 1996, dated 2006)

Assays:
rat hepatocytes [1] = test: Effect of matrix substrates on hepatocyte growth (total DNA per culture at day 15); format: cell-based; details: dry coating of plates; HBM with HGF/SF 40 ng/ml and EGF 20 ng/ml; FIG. 3
Experimental: (§1) Collagen gels were prepared as described by Michalopoulos, G. K., et al., Exp. Cell. Res. 94:70 (1975), the disclosure of which is incorporated herein by reference. Dry coating of plates with collagen and Matrigel was also performed as specified by the manufacturer. Matrigel gels were made by adding 50 μl of Matrigel solution into 0.5 ml of medium directly on the top of attached cells.
Several matrix substrates promoted cell growth in this system. […] The cells were cultured as described above. […] Coating with type I collagen (Vitrogen commercial preparation) was the standard method used for the experiments unless otherwise specified. The effect of matrix gels in promoting specific phenotypic conversions in these cultures is further discussed below.

rat hepatocytes [2] = test: Hepatocyte proliferation in HBM supplemented with growth factors (total DNA per culture, thymidine uptake, BRdU labeling); format: cell-based; details: FIG. 2; for cell proliferation, total amount of DNA per culture at day 15: growth factor added individually to HBM medium
Text: Rat hepatocytes were isolated by an adaptation of the calcium two step collagenase perfusion technique as taught by Kost, D. P., et al, J. Cell. Physiol. 147:274 (1991), the disclosure of which is incorporated herein by reference. All such preparations were designed to obtain a population of pure hepatocytes. […] After isolation of hepatocytes, the cells were suspended in a media used for cell attachment to the culture plates. This media was MEM (GIBCO 12570) with NEAA (GIBCO 11140), insulin 5 mg/L, and gentamycin 5 μg/ml. Hepatocytes were plated on a single layer of collagen coating as described below and left to attach for 2 hours. Six-well cluster plates (9.8 square centimeters […]) from Corning were used. For experiments where hepatocytes were not going to be induced to proliferate, or where assessments of differentiated function were performed, the cells were plated at a density of 80,000 hepatocytes per square centimeter of surface area. For experiments intended to induce proliferation or genetic transduction with foreign DNA, cells were plated at an initial density of 1,000 or 10,000 hepatocytes per square centimeter of surface area. The plating medium was replaced with the invention HBM medium at 2 hours after the cells were plated and every 48 hours thereafter. Thymidine, growth factors, and other ingredients, were added at the time of medium change as required.
(§2) DNA synthesis was measured by the uptake of tritiated thymidine into trichloroacetic acid (TCA) precipitable material as described by Kost, D. P., et al. (1991), cited above. Collagen gels, where necessary, were digested with 2 mg of collagenase per ml of MEM medium used. Incubation was then carried out for 30 minutes at 37° C. The digested gels were treated with NaOH followed by TCA to precipitate DNA, RNA, and proteins as described by Kost, D. P., et al. (1991), cited above.
FIGS. 1A and 1B show the uptake of thymidine per μg DNA, as well as the BRdU nuclear labeling index at different days in culture in cells growing in the presence of HGF/SF and EGF (40, 20 ng/ml respectively) as described above. […] By day 15 the cultures were confluent and DNA synthesis slowed down.
The growth factors HGF/SF, EGF, TGFα, KGF (keratinocyte growth factor), SCF (stem cell factor), and aFGF (acidic fibroblast growth factor) were added individually to HBM medium. […] The total DNA per culture is shown as a function of the time in culture. […] The DNA per culture at day 15 was 12 times that at time 0, reflecting the increase in cell number. […] TGFα alone was more mitogenic than either HGF/SF or EGF alone.

hepatocytes = test: Hepatocytes between two type I collagen gel layers in HBM: ductular/acinar structures and proliferation; format: cell-based, rat; details: for phenotype of hepatocytes between two collagen gel layers: HBM supplemented with the growth factor, 15 day cultures
Experimental: as §1
Hepatocytes maintained between two collagen gel layers retain their morphology and differentiation for prolonged time periods as described by Michalopoulos, G. K., et al., J. Cell. Physiol. 156:443 (1993), the disclosure of which is incorporated herein by reference. Hepatocytes maintained in collagen gel sandwiches in cultures with convential media containing HGF/SF undergo intense proliferation, form prominent projections, and eventually become organized in structures reminiscent of the hepatic plates. The behavior of hepatocytes maintained between two layers of collagen gel as previously described was examined, but in the presence of HBM supplemented with either HGF/SF or EGF as described above. […] These became prominent and encompassed most of the cells present in the cultures. Starting from approximately day 10 and by day 15 most of the cells in the culture were arranged in such ductular structures. Histologic sections are shown in FIG. 7B (light microscopy) and FIGS. 7C and 7D (electron microscopy). […] Some of the cells surrounding these structures were very attenuated and had light and electron microscopic appearance identical to bile duct epithelium. Others however are larger and resemble more closely the ductular hepatocytes described in previous studies of in vivo models. The proliferation of cells (data not shown) under either EGF or HGF/SF in the collagen gel sandwiches was much less (<25% at the highest peak) than that seen in the cultures on plastic coated with dry collagen. Most proliferation ceased by day 10 and the duct-like structures appeared after cell proliferation had ceased (days 10–15). […]

[3] = test system: cytochrome P450 IIB1 mRNA; test: Northern blot of cytochrome IIB1 mRNA induction; details: PB added at day 10 of culture, harvest at day 15; with or without Matrigel at day 8; FIG. 6E
Experimental: Extraction of Total RNA and mRNA from Cultures. Total RNA was extracted from unwashed cell cultures using 2.0 ml of RNAzol B (BioTec) per well and purified per the manufacturer's guidelines. RNA concentration and purity were determined by routine spectrophotometry. Size separation of 20 μg RNA per lane was completed on denaturing it agarose gels and transferred to nylon membranes (Amersham, Arlington Heights, Ill.) by the capillary method. After cross-linking under UV light, the membranes were hybridized overnight with specific cDNAs (as indicated in the figures) that had been labeled with [α-^32P]dCTP using an Amersham random primer kit. Membranes were subsequently washed under high stringency conditions and exposed to XAR film (Eastman Kodak, Rochester, N.Y.) for 1–3 days. Quantification of the RNA hybridization bands were performed by laser densitometry.
The effect of Phenobarbitol (PB) on the levels of cytochrome P450 IIB1 mRNA in the Matrigel-treated cultures was also measured as shown in FIG. 6E. Matrigel was added to the cultures at day 8. PB was added 2 days later (day 10 of culture). The cells were harvested 5 days after addition of PB (day 15 in culture).

[4] = test system: proliferating hepatocytes; test: Matrigel overlay: reversion of proliferating hepatocytes to mature hepatocyte morphology; format: cell-based, rat; details: Matrigel overlay with 20 mM hydroxyurea
Experimental: To assess whether differentiation to mature hepatocyte morphology required DNA synthesis, 20 mM hydroxurea was added to the HBM media. […] Hydroxyurea was added to cultures before the Madrigel overlay and maintained throughout the next 5-day period.

[5] = test system: proliferating hepatocytes; test: DNA synthesis in hepatocyte cultures (tritiated thymidine uptake); format: cell-based, rat; details: for DNA synthesis: 20 mM, 5-day period
Experimental: as §2
To assess whether differentiation to mature hepatocyte morphology required DNA synthesis, 20 mM hydroxurea was added to the HBM media. This has been shown (Michalopoulos, G. K., et al., Cancer Res. 38:1866 (1978), the disclosure of which is incorporated herein by reference) to abolish scheduled semiconservative DNA synthesis in hepatocytes by inhibiting ribonucleotide reductase. Hydroxyurea was added to cultures before the Madrigel overlay and maintained throughout the next 5-day period.
Hepatocytes maintained between two collagen gel layers retain their morphology and differentiation for prolonged time periods as described by Michalopoulos, G. K., et al., J. Cell. Physiol. 156:443 (1993), the disclosure of which is incorporated herein by reference. Hepatocytes maintained in collagen gel sandwiches in cultures with convential media containing HGF/SF undergo intense proliferation, form prominent projections, and eventually become organized in structures reminiscent of the hepatic plates. The behavior of hepatocytes maintained between two layers of collagen gel as previously described was examined, but in the presence of HBM supplemented with either HGF/SF or EGF as described above. […] These became prominent and encompassed most of the cells present in the cultures. Starting from approximately day 10 and by day 15 most of the cells in the culture were arranged in such ductular structures. Histologic sections are shown in FIG. 7B (light microscopy) and FIGS. 7C and 7D (electron microscopy). […]

For fibronectin, the “promotion of cell growth, total DNA per culture at day 15” value (“promotion … per culture at day 15” below) (rat hepatocytes [1]) was “equally effective in promoting cell growth”.

With TGFα: transforming growth factor a the “proliferative effect compared with the other mitogens” value (rat hepatocytes [2]; HBM medium, 15 days) was “stronger proliferative effect than any of the other mitogens when added alone” and the “cell proliferation, total amount of DNA per culture at day 15” value (“cell proliferation … per culture at day 15” for short) (rat hepatocytes [2]) was “significant cell proliferation”.

For SCF: stem cell factor, the “cell proliferation … per culture at day 15” value (rat hepatocytes [2]) was “no proliferative effect”.

In the case of “type I (bovine): bovine skin collagen type I, dry coating matrix substrate”, the “promotion … per culture at day 15” value (rat hepatocytes [1]) is reported as “equally effective in promoting cell growth”.

With “HGF/SF: Hepatocyte growth factor, also known as scatter factor” the “phenotype of hepatocytes between two collagen gel layers” value (hepatocytes) was “multiple duct-shaped structures” and the “cell proliferation … per culture at day 15” value (rat hepatocytes [2]) was “significant cell proliferation”.

With aFGF: acidic fibroblast growth factor the “cell proliferation … per culture at day 15” value (rat hepatocytes [2]) was “no proliferative effect”.

In the case of CCC1(c2ccccc2)C(=O)NC(=O)NC1=O [PB, Phenobarbitol], the “levels of cytochrome P450 IIB1 mRNA” value [3] is reported as “induced cytochrome IIB1 mRNA only in the Matrigel-treated cultures”.

In the case of NC(=O)NO [Hydroxyurea], the “conversion of the proliferating hepatocytes to mature hepatocyte morphology” value [4] is reported as “entirely unaffected”, the “formation of the ductular structures under inhibition of DNA synthesis” value (hepatocytes; collagen gel sandwich, data not shown) is reported as “did not affect the formation of the ductular structures” and the DNA synthesis ([5]; cultures in the presence of Matrigel) is reported as 6.27 % of control (without hydroxyurea). The DNA synthesis ([5]; proliferating cultures in the absence of Matrigel) was 3.93 % of the control (without hydroxyurea) and the “DNA synthesis (inhibition down to)” value ([5]; collagen gel sandwich cultures, data not shown) was 5.1 % of control.

With laminin the “promotion … per culture at day 15” value (rat hepatocytes [1]) was “equally effective in promoting cell growth”.

EGF: epidermal growth factor was tested, and the “phenotype of hepatocytes between two collagen gel layers” value (hepatocytes) was “underwent the typical phenotypic transitions” and the “cell proliferation … per culture at day 15” value (rat hepatocytes [2]) was “significant cell proliferation”.

B1: KGF: keratinocyte growth factor (protein, UniProt P21781 32-194, looked up)
Fibroblast growth factor 7: CNDMTPEQMATNVNCSSPERHTRSYDYMEGGDIRVRRLFCRTQWYLRIDKRGKVKGTQEMKNNYNIMEIRTVAVGIVAIKGVESEFYLAMNKEGKLYAKKECNEDCNFKELILENHYNTYASAKWTHNGGEMFVALNQKGIPVRGKKTKKEQKTAHFLPMAIT
For B1, the “cell proliferation … per culture at day 15” value (rat hepatocytes [2]) was “no proliferative effect”.
